# Laboratory results: patent US10040798B2, “Pyrrolopyridazine inhibitors of IRAK4 activity” (MERCK SHARP & DOHME CORP., priority 2015, dated 2018)
# Counter-ions that a name gives are not always drawn.
# Target: IRAK4 (Homo sapiens (Human), UniProt Q9NWZ3)
# Test: IRAK4 Kinase Assay (IMAP fluorescence polarization)
# Assay type: biochemical
# Conditions: 0.5 nM GST tagged IRAK4, 100 μM ATP, 30 minutes at 25° C., IMAP FP
# Summary of the method: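 GST-tagged IRAK4 (0.5 nM) phosphorylated 100 nM fluorescent peptide RP7030 with 100 μM ATP in 10 mM Tris-HCl pH 7.2, MgCl2, DTT and Tween 20 for 30 min at 25 °C. Phosphorylation was read as the increase in fluorescence polarization after binding to IMAP nanoparticles.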
# Sequence of IRAK4 (Q9NWZ3 whole entry): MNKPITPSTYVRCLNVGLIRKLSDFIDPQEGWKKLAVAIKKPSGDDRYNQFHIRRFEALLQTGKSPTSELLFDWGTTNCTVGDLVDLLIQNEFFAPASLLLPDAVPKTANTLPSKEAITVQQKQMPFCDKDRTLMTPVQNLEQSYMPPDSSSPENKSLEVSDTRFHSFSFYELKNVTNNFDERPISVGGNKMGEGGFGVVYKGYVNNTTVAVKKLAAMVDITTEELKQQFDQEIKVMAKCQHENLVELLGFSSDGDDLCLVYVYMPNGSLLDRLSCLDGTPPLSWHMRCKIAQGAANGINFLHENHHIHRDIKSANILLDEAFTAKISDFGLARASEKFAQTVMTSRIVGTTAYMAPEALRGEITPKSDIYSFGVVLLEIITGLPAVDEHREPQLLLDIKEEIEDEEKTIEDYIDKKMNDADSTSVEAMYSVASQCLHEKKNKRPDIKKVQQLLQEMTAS
row,IC50 [nM],Structure (SMILES)
1,2,"N#Cc1sccc1NC(=O)c1ccc2ccc(N[C@@H]3CCCC[C@@H]3N)nn12 [Example 75, 2-{[(1R,2S)-2-aminocyclohexyl]amino}-N-(2-cyanothiophen-3-yl)pyrrolo[1,2-b]pyridazine-7-carboxamide trifluoroacetate]"
2,1320,"O=C(Nc1ccsc1Br)c1ccc2ccc(N3CCCNCC3)nn12 [Example 76, N-(2-bromothiophen-3-yl)-2-(1,4-diazepan-1-yl)pyrrolo[1,2-b]pyridazine-7-carboxamide trifluoroacetate]"
3,11,"N[C@H]1CCCC[C@H]1Nc1ccc2ccc(C(=O)Nc3ccsc3Br)n2n1 [Example 77, 2-{[(1R,2S)-2-aminocyclohexyl]amino}-N-(2-bromothiophen-3-yl)pyrrolo[1,2-b]pyridazine-7-carboxamide trifluoroacetate]"
4,308,"O=C(Nc1cscc1Cl)c1ccc2ccc(N3CCCNCC3)nn12 [Example 82, N-(4-chlorothiophen-3-yl)-2-(1,4-diazepan-1-yl)pyrrolo[1,2-b]pyridazine-7-carboxamide trifluoroacetate]"
5,2,"N[C@H]1CCCC[C@H]1Nc1ccc2ccc(C(=O)Nc3cscc3Cl)n2n1 [Example 85, 2-{[(1R,2S)-2-aminocyclohexyl]amino}-N-(4-chlorothiophen-3-yl)pyrrolo[1,2-b]pyridazine-7-carboxamide trifluoroacetate]"
6,5240,"N[C@@H]1[C@H](Nc2ccc3ccc(C(=O)Nc4ccsc4Br)n3n2)CCCC1(F)F [Example 86, 2-{[(1R,2R)-2-amino-3,3-difluoro-cyclohexyl]amino}-N-(2-bromothiophen-3-yl)pyrrolo[1,2-b]pyridazine-7-carboxamide trifluoroacetate]"
7,2170,"N[C@@H]1[C@H](Nc2ccc3ccc(C(=O)Nc4cscc4Cl)n3n2)CCCC1(F)F [Example 87, 2-{[(1R,2R)-2-amino-3,3-difluoro-cyclohexyl]amino}-N-(4-chlorothiophen-3-yl)pyrrolo[1,2-b]pyridazine-7-carboxamide acetate]"
8,6160,"N[C@@H]1[C@H](Nc2ccc3ccc(C(=O)Nc4cscc4Br)n3n2)CCCC1(F)F [Example 88, 2-{[(1R,2R)-2-amino-3,3-difluoro-cyclohexyl]amino}-N-(4-bromothiophen-3-yl)pyrrolo[1,2-b]pyridazine-7-carboxamide trifluoroacetate]"
9,342,"N#Cc1cscc1NC(=O)c1ccc2ccc(N[C@@H]3CCCC(F)(F)[C@@H]3N)nn12 [Example 89, 2-{[(1R,2R)-2-amino-3,3-difluoro-cyclohexyl]amino}-N-(4-cyanothiophen-3-yl)pyrrolo[1,2-b]pyridazine-7-carboxamide trifluoroacetate]"
10,1920,"N[C@@H]1[C@H](Nc2ccc3ccc(C(=O)Nc4ccsc4Cl)n3n2)CCCC1(F)F [Example 90, 2-{[(1R,2R)-2-amino-3,3-difluoro-cyclohexyl]amino}-N-(2-chlorothiophen-3-yl)pyrrolo[1,2-b]pyridazine-7-carboxamide trifluoroacetate]"
11,6370,"O=C(Nc1ccsc1Cl)c1ccc2ccc(N[C@@H]3CCCC[C@@H]3O)nn12 [Example 91, N-(2-chlorothiophen-3-yl)-2-{[(1R,2S)-2-hydroxycyclohexyl]amino}pyrrolo[1,2-b]pyridazine-7-carboxamide]"
12,2060,"N[C@@H]1[C@H](Nc2ccc3ccc(C(=O)Nc4ccccc4Cl)n3n2)CCCC1(F)F [Example 92, 2-{[(1R,2R)-2-amino-3,3-difluoro-cyclohexyl]amino}-N-(2-chlorophenyl)pyrrolo[1,2-b]pyridazine-7-carboxamide trifluoroacetate]"
13,6840,"O=C(Nc1ccccc1Cl)c1ccc2ccc(N[C@@H]3CCCC[C@@H]3O)nn12 [Example 93, N-(2-chlorophenyl)-2-{[(1R,2S)-2-hydroxycyclohexyl]amino}pyrrolo[1,2-b]pyridazine-7-carboxamide trifluoroacetate]"
14,5630,"N[C@@H]1[C@H](Nc2ccc3ccc(C(=O)Nc4ccccc4Br)n3n2)CCCC1(F)F [Example 94, 2-{[(1R,2R)-2-amino-3,3-difluoro-cyclohexyl]amino}-N-(2-bromophenyl)pyrrolo[1,2-b]pyridazine-7-carboxamide trifluoroacetate]"
15,5860,"O=C(Nc1ccccc1Br)c1ccc2ccc(N[C@@H]3CCCC[C@@H]3O)nn12 [Example 95, N-(2-bromophenyl)-2-{[(1R,2S)-2-hydroxycyclohexyl]amino}pyrrolo[1,2-b]pyridazine-7-carboxamide trifluoroacetate]"
16,753,"N[C@@H]1[C@H](Nc2ccc3ccc(C(=O)Nc4cscc4C(F)F)n3n2)CCCC1(F)F [Example 96, 2-{[(1R,2R)-2-amino-3,3-difluoro-cyclohexyl]amino}-N-[4-(difluoro-methyl)thiophen-3-yl]pyrrolo[1,2-b]pyridazine-7-carboxamide trifluoroacetate]"
17,1370,"N#Cc1sccc1NC(=O)c1ccc2ccc(N[C@@H]3CCCC[C@@H]3O)nn12 [Example 97, N-(2-cyanothiophen-3-yl)-2-{[(1R,2S)-2-hydroxycyclohexyl]amino}pyrrolo[1,2-b]pyridazine-7-carboxamide trifluoroacetate]"

row,IC50 [nM],Structure (SMILES)
1,526,"N#Cc1sccc1NC(=O)c1ccc2ccc(N[C@@H]3CCCC(F)(F)[C@@H]3N)nn12 [Example 98, 2-{[(1R,2R)-2-amino-3,3-difluorocyclohexyl]amino}-N-(2-cyanothiophen-3-yl)pyrrolo[1,2-b]pyridazine-7-carboxamide trifluoroacetate]"
2,63,"Cn1cc(NC(=O)c2ccc3ccc(N4CCNCC4)nn23)c(C(F)(F)F)n1 [Example 99, N-(1-Methyl-3-(trifluoromethyl)-1H-pyrazol-4-yl)-2-(piperazin-1-yl)pyrrolo[1,2-b]pyridazine-7-carboxamide]"
3,866,"N#Cc1ccccc1NC(=O)c1ccc2ccc(N3CCCNCC3)nn12 [Example 100, N-(2-Cyanophenyl)-2-(1,4-diazepan-1-yl)pyrrolo[1,2-b]pyridazine-7-carboxamide]"
4,574,"N#Cc1ccccc1NC(=O)c1ccc2ccc(N3CCNCC3)nn12 [Example 101, N-(2-cyanophenyl)-2-piperazin-1-ylpyrrolo[1,2-b]pyridazine-7-carboxamide trifluoroacetate]"
5,461,"N#Cc1ccccc1NC(=O)c1ccc2ccc(N3CC4CCC3CN4)nn12 (stereo not drawn) [Example 102, N-(2-cyanophenyl)-2-(2,5-diazabicyclo[2.2.2]oct-2-yl)pyrrolo[1,2-b]pyridazine-7-carboxamide trifluoroacetate]"
6,766,"N#Cc1ccccc1NC(=O)c1ccc2ccc(N3CCNCC4(CC4)C3)nn12 [Example 103, N-(2-cyanophenyl)-2-(5,8-diazaspiro[2.6]non-5-yl)pyrrolo[1,2-b]pyridazine-7-carboxamide trifluoroacetate]"
7,1860,"N#Cc1ccccc1NC(=O)c1ccc2ccc(N[C@@H]3CCCC[C@@H]3O)nn12 [Example 104, N-(2-cyanophenyl)-2-{[(1R,2S)-2-hydroxycyclohexyl]amino}pyrrolo[1,2-b]pyridazine-7-carboxamide trifluoroacetate]"
8,6,"N#Cc1ccccc1NC(=O)c1ccc2ccc(N[C@@H]3CCCNC3)nn12 [Example 105, N-(2-cyanophenyl)-2-[(3R)-piperidin-3-ylamino]pyrrolo[1,2-b]pyridazine-7-carboxamide trifluoroacetate]"
9,6,"N#Cc1ccccc1NC(=O)c1ccc2ccc(N[C@@H]3CCCC[C@@H]3N)nn12 [Example 106, 2-{[(1R,2S)-2-aminocyclohexyl]amino}-N-(2-cyanophenyl)pyrrolo [1,2-b]pyridazine-7-carboxamide trifluoroacetate]"
10,26,"N#Cc1ccccc1NC(=O)c1ccc2ccc(N3CCC[C@@H](N)C3)nn12 [Example 107, 2-[(3R)-3-aminopiperidin-1-yl]-N-(2-cyanophenyl) pyrrolo[1,2-b]pyridazine-7-carboxamide trifluoroacetate]"
11,825,"N#Cc1ccccc1NC(=O)c1ccc2ccc(N[C@@H]3CCCC(F)(F)[C@@H]3N)nn12 [Example 110, 2-{[(1R,2R)-2-amino-3,3-difluorocyclohexyl]amino}-N-(2-cyanophenyl)pyrrolo [1,2-b]pyridazine-7-carboxamide trifluoroacetate]"
12,1420,"O=C(Nc1ccccc1C(F)(F)F)c1ccc2ccc(N3CCCNCC3)nn12 [Example 111, 2-(1,4-Diazepan-1-yl)-N-(2-(trifluoromethyl)phenyl)pyrrolo[1,2-b]pyridazine-7-carboxamide]"
13,472,"N[C@H]1CCCC[C@H]1Nc1ccc2ccc(C(=O)Nc3ccccc3C(F)F)n2n1 [Example 112, 2-{[(1R,2S)-2-aminocyclohexyl]amino}-N-[2-(difluoromethyl)phenyl]pyrrolo[1,2-b]pyridazine-7-carboxamide trifluoroacetate]"
14,2020,"O=C(Nc1ccsc1C(F)(F)F)c1ccc2ccc(N3CCCNCC3)nn12 [Example 115, 2-(1,4-diazepan-1-yl)-N-[2-(trifluoromethyl)thiophen-3-yl]pyrrolo[1,2-b]pyridazine-7-carboxamide trifluoroacetate]"
15,221,"N[C@H]1CCCC[C@H]1Nc1ccc2ccc(C(=O)Nc3ccsc3C(F)(F)F)n2n1 [Example 116, 2-{[1R,2S)-2-aminocyclohexyl] amino}-N-[2-(trifluoromethyl) thiophen-3-yl] pyrrolo[1,2-b]pyridazine-7-carboxamide trifluoroacetate]"
16,2980,"N[C@@H]1[C@H](Nc2ccc3ccc(C(=O)Nc4ccsc4C(F)(F)F)n3n2)CCCC1(F)F [Example 117, 2-{[(1R,2R)-2-amino-3,3-difluorocyclohexyyl]amino}-N-[2-(trifluoromethyl)thiophen-3-yl]pyrrolo[1,2-b]pyridazine-7-carboxamide trifluoroacetate]"
